The values below come from patent US6630326B2, “Cancer diagnosis and therapy based on mutations in TGF-β receptors” (Case Western Reserve University, priority 1995, dated 2003).

The test system of assay [1] is colon cells with intact TGFβ receptors. Briefly: TGFβ-induced cell death in colon cells. It is filed as cell-based. The settings on record: colon cells with intact TGFβ receptors exposed to TGFβ. The text has this: Thus, therapeutic effects of restoring an active RII in colon cancer cells will include restoring normal cell death pathways. RII gene therapy is thus useful in combination with and to sensitize cells to conventional cytotoxic radiation or chemotherapy.

Assay [2] deals with RII expression in MCF-7, ZR-75, and T-47D. Briefly: RNase protection assay for RII transcript after 5-Azacytidine treatment. It is filed as cell-based, human. The settings on record: ER+ breast cancer cell lines MCF-7, ZR-75, T-47D; 2.5-5.0 μM 5-Azacytidine; after 8 days. The text has this:
A preferred method for detecting loss of mRNA is based on RNase protection. Details of this assay have been published in Sun, et al. Briefly the RNase protection assay measures the amount of RII mRNA in a sample by measuring the amount of RNA which binds to a radioactive antisense RII RNA probe. The radioactive antisense RII RNA probe is produced in a test tube, for example from a plasmid which carries 264 bp for RII cDNA (NarI-PstI) cloned downstream of a T3 RNA polymerase site from which the RNA can be transcribed. Usually, a control human probe such as γ-actin RNA is also prepared from a similar plasmid. The probes are hybridized overnight at room temperature in a guanidine buffer with RNA extracted from tumor cells. The next morning probe RNA which is not protected by binding to authentic RII transcript is destroyed by digestion with RNase A+T1. Protected probe RNA is separated from the reaction by electrophoresis on a urea-acrylamide gel and visualized by autoradiography.
Expression of RI and RII transcripts was examined in 38 human colon tumor cell lines using a ribonuclease (RNase) protection assay as described above (see also Sun, et al., 1994). Total RNA (40 μg) from each sample was hybridized overnight in a single reaction to probes for RI, RII and human γ-actin. […]

For assay [3], the system named is RII protein expression in MCF-7, ZR-75, and T-47D. Briefly: 125I-TGFβ cross-link assay for cell surface RII protein after 5-Azacytidine treatment. Type of assay: cell-based, human. As to conditions: MCF-7, ZR-75, T-47D; 2.5-5.0 μM 5-Azacytidine; after 8 days. The text has this:
A preferred method of detecting the presence of functional RII is by TGFβ binding assay in which labelled TGFβ binds to RII followed by cross-linking and measurement of the amount of label linked to RII protein. Details of this assay have been published in Sun, et al., incorporated herein by reference. Briefly, cell surface receptors may be detected by cross-linking in situ to ^125I labelled TGFβ followed by separation on SDS-PAGE and visualization by autoradiography as described in Example 3 below.
To assay for expression of cell surface TGFβ receptors, we performed cross-linking experiments with ^125I-labeled TGFβ. Cell surface TGFβ receptors were labeled by cross-linking to ^125I-labeled human TGFβ1 as described in Sun, L., et al., 1994 (J. Biol. Chem., 269:26449). Labeled receptors were resolved by SDS-polyacrylamide gel electrophoresis and visualized by autoradiography. There was no detectable ^125I-TGFβ binding to any of eight tested RER^+ cell lines with reduced amounts of RII transcript (FIG. 3). The absence of RI surface receptors in these lines (FIG. 3) is consistent with previous reports that RII receptor is required for TGFβ binding to RI (Wrana, J., et al., 1992, Cell, 71:1003; Sun, L., et al., 1994, J. Biol. Chem., 269:26449). […]

Entries after “also recorded” stand apart in the source; their conditions may differ.

In the case of “TGFβ: transforming growth factor beta, natural inhibitor of growth of human epithelial cells”, the “induction of cell death (apoptosis)” value in assay [1] was “induce cell death”. Regarding `Nc1ncn([C@@H]2O[C@H](CO)[C@@H](O)[C@H]2O)c(=O)n1` [5-Azacytidine], in assay [2], the “RII expression (RNase protection assay)” value was “restored RII expression; also recorded: RII expression by the treated cells was demonstrated”. Further, in assay [3], the “RII protein expression (125I-TGFβ cross-link)” value is “RII protein expression was confirmed”.
